Data on two compounds can be found in US9815866B2, “Peptides that bind to epithelial cell adhesion molecule” (JAPANESE FOUNDATION FOR CANCER RESEARCH, priority 2012, dated 2017).

Data set [1] addresses T1, EpCAM (Homo sapiens, UniProt P16422).
T1 construct: with insertions myc and His tags at the C terminus of the extracellular domain; myc (C); made in house; host or cells: HEK-293T
T1 sequence (P16422 24-265 limits assumed): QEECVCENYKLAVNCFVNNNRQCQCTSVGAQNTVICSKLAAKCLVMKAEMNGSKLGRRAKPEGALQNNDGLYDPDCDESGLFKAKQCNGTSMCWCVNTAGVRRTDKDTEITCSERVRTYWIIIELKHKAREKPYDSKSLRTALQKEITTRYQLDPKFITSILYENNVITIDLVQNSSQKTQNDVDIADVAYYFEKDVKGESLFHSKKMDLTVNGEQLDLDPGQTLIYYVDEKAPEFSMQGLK
The data set is described as follows: Dissociation constant of EpCAM-binding peptide and EpCAM by fluorescence depolarization method. Conditions: immediately after chemical synthesis, no oxidation. The procedure: The obtained EpCAM peptides were assayed for their strength of binding to EpCAM by the fluorescence depolarization method, which is a method for evaluating the interaction between molecules. Each fluorescently labeled EpCAM peptide and EpCAM are used to determine the strength of binding from the kinetics of depolarization by Brownian movement.
Each FITC-modified EpCAM peptide or control peptide was suspended at a concentration of approximately 100 μM in PBS. After centrifugation, the supernatant was collected and diluted 10-fold, and the absorbance was measured at 495 nm From the measurement value, the molar concentration of the peptide was determined using the formula of Beer-Lambert of the following expression 1: A=E×b×C [Expression 1]
EpCAM is diluted with PBS into several concentrations from 0 until reaching equilibrium (40 nM for the Ep133 peptide), and the FITC-modified peptide whose precise concentration has been measured by the aforementioned method is added to the dilutions thus prepared. The sample was left at a temperature for measurement for 30 minutes or longer and subjected to polarization measurement using a spectrofluorometer FP-6500 (JASCO Corp.) equipped with an automatic polarization measurement unit (JASCO Corp., APH-103). Kd was estimated by curve fitting according to the Hill equation.
The dissociation constants of the two types of peptides Ep133 (FIG. 2(A)) and Ep114 (FIG. 2(C)), which were obtained in the present invention and had the high ability to bind to EpCAM, were measured by the fluorescence depolarization method.
The dissociation constants of the EpCAM-binding peptide Ep301 (FIG. 2(D)) disclosed in Patent Literature 2 and Ep301 control (FIG. 2(E)), which was a control peptide derived from Ep301 by the substitution of cysteine at positions 5 and 10 by serine, and a sequence of EpCAM from residue 106 to 119 (FIG. 2(F)) having partial homology to EpCAM-binding peptides were measured similarly.

In data set [2] the test system is non-EpCAM-expressing cells Hs578T. The data set is described as follows: Cell staining of Hs578T cells, confocal microscope. Type of data set: cell-based. The settings on record: FITC-labeled peptide 0.4 μM, 37° C., 1 hour. Here is the method: (§1) The EpCAM-expressing cells HT-29 or the non-expressing cells Hs578T were cultured in a medium containing 10% fetal calf serum in a Petri dish for 48 hours and then incubated at 37° C. for 1 hour with the FITC-labeled Ep114 peptide or a L3A control labeled peptide at a final concentration of 0.4 μM Immediately thereafter, the cells were observed under a confocal microscope.

The target in another data set is T2, EpCAM on HT-29 (Homo sapiens, UniProt P16422).
T2 sequence (P16422 24-314): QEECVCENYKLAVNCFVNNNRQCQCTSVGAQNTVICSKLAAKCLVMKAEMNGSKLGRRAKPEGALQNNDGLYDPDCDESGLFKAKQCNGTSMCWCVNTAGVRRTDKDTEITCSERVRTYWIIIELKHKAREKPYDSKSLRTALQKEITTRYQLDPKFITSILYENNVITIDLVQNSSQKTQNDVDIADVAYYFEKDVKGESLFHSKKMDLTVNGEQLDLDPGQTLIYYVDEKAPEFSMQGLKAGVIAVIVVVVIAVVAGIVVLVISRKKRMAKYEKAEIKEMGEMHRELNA
The data set is described as follows: Staining of spheroid-cultured HT-29 cells with FITC-modified peptide. Format: cell-based. The arrangement: endogenous in cells; host or cells: HT-29. Conditions: FITC-labeled peptide, 0.4 μM. The procedure: The HT-29 cells as EpCAM-expressing cells were cultured by spheroid culture method as follows: 4×10^5 cells are suspended in 3 ml of D-MEM/F-12 medium (Dulbecco's Modified n Eagle Medium:Nutrient Mixture 12, 1:1 mixture) (Gibco/Life Technologies Inc.) supplemented with 20 ng/ml human EGF (Miltenyi Biotec K.K.), 20 ng/ml human EGF-2 (Miltenyi Biotec K.K.), B-27 (Gibco/Life Technologies Inc.), penicillin, and streptomycin and inoculated to EZ-Sphere®, a Petri dish of 3.5 cm in diameter coated with MPC polymer. After static culture for 72 hours, the cells were collected while the medium was suspended by pipetting. The cells were stained with the FITC-modified peptide and observed under a fluorescence microscope. […]

Data set [3] concerns the target T3, 293T cells transfected with full-length EpCAM gene (Homo sapiens, UniProt P16422).
T3 construct: an expression plasmid in which the full-length EpCAM gene incorporated; expressed in transfected cells; host or cells: 293T
T3 sequence (P16422 24-314): T2 sequence (P16422 24-314)
The data set is described as follows: Staining of 293T cells forced to express EpCAM with FITC-modified peptide. Type of data set: cell-based. The settings on record: FITC-modified peptide with or without oxidation treatment. The text has this: 293T cells expressing no endogenous EpCAM were transfected with pkk196, an expression plasmid in which the full-length EpCAM gene incorporated, and forced to express EpCAM, followed by staining using FITC-modified Ep114.

The target of a further data set is T4, MCF-7 cells (Homo sapiens, UniProt P16422).
T4 construct: in MCF-7 cells known to express EpCAM; endogenous in cells; host or cells: MCF-7
T4 sequence (P16422 24-314): T2 sequence (P16422 24-314)
The data set is described as follows: Staining of EpCAM in MCF-7 cells. Type of data set: cell-based. Conditions: data not shown. The procedure:
The HT-29 cells as EpCAM-expressing cells were cultured by spheroid culture method as follows: 4×10^5 cells are suspended in 3 ml of D-MEM/F-12 medium (Dulbecco's Modified n Eagle Medium:Nutrient Mixture 12, 1:1 mixture) (Gibco/Life Technologies Inc.) supplemented with 20 ng/ml human EGF (Miltenyi Biotec K.K.), 20 ng/ml human EGF-2 (Miltenyi Biotec K.K.), B-27 (Gibco/Life Technologies Inc.), penicillin, and streptomycin and inoculated to EZ-Sphere®, a Petri dish of 3.5 cm in diameter coated with MPC polymer. After static culture for 72 hours, the cells were collected while the medium was suspended by pipetting. The cells were stained with the FITC-modified peptide and observed under a fluorescence microscope. The staining was carried out by adding 4 μM peptide into a McCoy's 5A medium and standing still at room temperature for 30 minutes.
In addition to HT-29 cells, the staining of EpCAM using Ep114 was also confirmed by a similar method in MCF-7 cells known to express EpCAM (data not shown).

Data set [4] has as its target T5, EpCAM-expressing cells HT-29 (Homo sapiens, UniProt P16422).
T5 construct: EpCAM on HT-29 was stained at a concentration of 0.4 μM; endogenous in cells; host or cells: HT-29
T5 sequence (P16422 24-314): T2 sequence (P16422 24-314)
The data set is described as follows: Cell staining of HT-29 cells, confocal microscope. Type of data set: cell-based. Conditions: HT-29, FITC-labeled peptide 0.4 μM, 37° C., 1 hour. Here is the method: as §1

The target in the next data set is T6, HT-29-derived exosomes (Homo sapiens, UniProt P16422).
T6 construct: endogenous in cells; host or cells: exosomes from HT-29 cells
T6 sequence (P16422 24-314): T2 sequence (P16422 24-314)
The data set is described as follows: ELISA with immobilized biotinylated peptide and HT-29-derived exosomes. Format: binding. The settings on record: increasing HT-29-derived exosomes. Here is the method: was immobilized onto an ELISA plate via streptavidin, and HT-29-derived exosomes were added thereto and reacted. After washing, bound exosomes were detected using the anti-EpCAM antibody. The biotin-modified peptide PE194 of the L3A variant was immobilized in the same way as above and used as a control.

Data set [5] in a line: S—S bond formation (autoxidation) of peptide by fluorescence depolarization method and HPLC. Format: physicochemical. An excerpt: The S—S bond formation of Ep114 was studied in detail using the fluorescence depolarization method and HPLC.
The target in data set [6] is T7, EpCAM (Homo sapiens, UniProt P16422).
T7 sequence (P16422 24-314): T2 sequence (P16422 24-314)
The data set is described as follows: Binding activity against EpCAM after oxidation treatment (S—S bond formation, HPLC fractionation).

Data set [7] concerns the target T7, EpCAM. Conditions: peptide separated from the phage; earlier work (Patent Literature 2); cited from earlier work.

Bridge positions count the residues as written; N and C are the ends. Peptide text beside a SMILES is read from it.

Take `CC[C@H](C)[C@@H]1NC(=O)[C@H](CC(N)=O)NC(=O)[C@H](CCCNC(=N)N)NC(=O)[C@H](C(C)C)NC(=O)[C@@H](NC(=O)[C@H](CCC(N)=O)NC(=O)[C@H](CC(C)C)NC(=O)[C@H](Cc2c[nH]cn2)NC(=O)[C@@H](N)CCCCN)CSSC[C@@H](C(=O)N[C@@H](Cc2c[nH]c3ccccc23)C(=O)N[C@@H](CO)C(=O)O)NC1=O` [Ep114, KHLQCVRNICWS] (H-KHLQCVRNICWS-OH; disulfide 5-10; N-terminus and C-terminus assumed): on EpCAM [1], the “binding activity against EpCAM” value is listed as “no binding activity against EpCAM”. Moreover, the staining result in [2] is on record as “no staining was observed”. The “staining of EpCAM on HT-29 spheroids” value at EpCAM on HT-29 is “stained”. Also, the “ability to stain EpCAM” value in [3] is listed as “equivalent ability to stain EpCAM”. The “staining of EpCAM” value on MCF-7 cells is “confirmed”. In data set [4], the “staining of cell membrane portions” value was “staining of the cell membrane portions of the EpCAM-expressing cells HT-29 was observed”. Also, the ELISA signal result on HT-29-derived exosomes is reported as “enhancement in ELISA signal was observed”. In [5] (in PBS at 4° C. or frozen at −20° C., data not shown), the “S—S bond formation” value was “oxidized after 10 days to form an S—S bond”. Further, in data set [5] (in the presence of 10% FCS), the oxidation result was “rapidly oxidized”.
As to `CC[C@H](C)[C@@H]1NC(=O)[C@@H](NC(=O)[C@H](CCC(N)=O)NC(=O)[C@H](CC(C)C)NC(=O)[C@H](CO)NC(=O)[C@@H](N)CCCCN)CSSC[C@@H](C(=O)N[C@@H](Cc2c[nH]c3ccccc23)C(=O)N2CCC[C@H]2C(=O)O)NC(=O)[C@H](CC(C)C)NC(=O)[C@H](CC(N)=O)NC(=O)[C@H](CC(N)=O)NC1=O` [Ep301, KSLQCINNLCWP, reference compound] (H-KSLQCINNLCWP-OH; disulfide 5-10; N-terminus and C-terminus assumed), the “binding activity against EpCAM” value on EpCAM [6] is “gain binding activity against EpCAM”. Besides, the “ability of the peptide to bind to EpCAM” value on EpCAM [7] is “weak”.
